# Legend:
# [1] = test system: IL-6, IL-22, IL-33 cytokine proteins; test: Cytokine & chemokine antibody microarray protein chip of DNCB skin tissue; assay type: in vivo, balb/c mice; conditions: 1% DNCB and 1 μM vs DNCB only; within threshold 1±0.1
# Text: A. Preparation of tissue samples: The mouse skin tissue was frozen in liquid nitrogen and then finely ground in a mortar. Liquid nitrogen was intermittently added to prevent the tissue from being thawed. The finely ground skin tissue was placed in lysis M buffer to prepare a tissue sample lysate.
# B. Fluorescent labeling of tissue lysates: Proteins were extracted from each of the tissue lysate treated with the sample for a certain period of time and an untreated tissue lysate (Lysis M extraction solution, Roche) and labeled with a fluorescent material (Cy3 or Cy5) (GE Healthcare). First, the amount of protein from each tissue lysate was adjusted to be at least 1 mg, and then coupling buffer (0.1M sodium carbonate buffer, pH 9.3) was added and mixed well. Cy3 and Cy5 dyes were added to each tissue lysate to which the coupling buffer had been added and mixed well for labeling at 4° C. for 16 hours. A control treated only with DNCB was labeled with Cy3 and Cy5, and the experimental groups treated with the sample were also labeled with Cy3 and Cy5. After labeling with the fluorescent dyes, free dyes were removed using a Post-reactive Spin column (Sigma).
# C. Fabrication of antibody microarrays: ProteoChip™ (Proteogen, Inc., Seoul, Korea) was used as a protein chip, and antibody microarrays were fabricated by spotting antibodies against 26 proteins in cells on a substrate immobilized with 200 μg/ml of protein A on the ProteoChip™. First, the antibodies were diluted to 100 μg/ml with phosphate buffer containing 30% glycerol and the antibody arrays were fixed overnight at 4° C. […]
# D. Hybridization of antibody arrays: Tissue lysates labeled with fluorescent materials were quantified (Bradford method), and 30 μg of each fluorescently labeled samples were mixed in 10 ml of a reaction solution. […] Each slide was analyzed using a fluorescent microarray scanner. […] The ratio of Cy5 to Cy3 in each spot was calculated using a software (Genepix 6.0). The INR values were calculated by sample-Cy5/control-Cy3×sample-Cy3/control-Cy5. […]
# IL-6, IL-22, IL-33 = test: Western blotting of cytokines in DNCB skin tissue lysates; assay type: in vivo, balb/c mice; conditions: changed slightly
# Procedure: E. Western blotting analysis: Western blotting analysis was performed to verify differences in protein expression in the above antibody array experiment. Proteins from the tissue lysates were separated on SDS-PAGE. The electrophoresed proteins were then transferred onto the PVDF membranes. After washing with PBST solution, the PVDF membranes were blocked with 5% skim milk powder for 1 hour and then reacted with a primary antibody overnight at 4° C. The membranes were washed with PBST solution and reacted with a secondary antibody (anti-IgG) conjugated with horseradish peroxidase (HRP) for 1 hour at room temperature and examined with a photoresist film.
structure (smiles),measurement,setting,value
Cl.N=C(N)NC(=N)Nc1ccc(Cl)cc1 [IPS-07001],"IL-6 protein expression (antibody chip, INR)",[1],decrease
same,"IL-22 protein expression (antibody chip, INR)",[1],decrease
same,"IL-33 protein expression (antibody chip, INR)",[1],decrease
same,IL-6 protein expression (western blotting),"IL-6, IL-22, IL-33",decreased
same,IL-22 protein expression (western blotting),"IL-6, IL-22, IL-33",decreased
same,IL-33 protein expression (western blotting),"IL-6, IL-22, IL-33",decreased
